The values below come from US20090130101A1, “ANTI-CANCER THERAPY WITH AN EXTRACT OF SCUTELLARIA BARBATA” (BIONOVO, INC., priority 2007, published 2009).

The subject of one experiment is ROS. Kind of experiment: ROS generation, CM-H2DCFDA conversion. Type of experiment: cell-based. Particulars: incubation of cells with the ROS scavenger prior to addition of BZL101, FIG. 10.
The test system of experiment [1] is subcutaneous cancer xenografts. The experiment is classed as in vivo, mice. Particulars: BZL101 0.5 ml oral gavage every third day; cyclophosphamide 25 mg/Kg/day in drinking water; FIG. 6. On the procedure:
As in Example 1, above, 10^5 cells were administered to each animal subcutaneously on Day 0. The animals were divided into four groups. The control group received only normal drinking water. The cyclophosphamide only group received 25 mg/Kg/day of cyclophosphamide in their drinking water.

Turning to `CC(=O)N[C@@H](CS)C(=O)O` [N-acetyl-cysteine], the “effect on BZL101-induced ROS generation” value in the experiment with ROS was “prevented most of the increase in ROS generation”. Turning to `O=P1(N(CCCl)CCCl)NCCCO1` (centres unmarked) [cyclophosphamide], the tumor growth entry in experiment [1] is recorded as “inhibited tumor growth as compared to the control”.
